Bridges are numbered along the chain shown (N, C = ends). Where no end group is shown, it is not given here.
Columns and labels:
[1] = Breathing simulator, amount of aerosol available for inhalation; type: physicochemical; conditions: nebulizers Type A and Type B
Experimental: It is ramblingly known, that in practice from a generated aerosol only a part is available for the patient. Thus, for determining the amount of aerosol which is available for a user, trials with a breathing simulator were carried out. For investigating the particle size and for the implementation of the breathing simulation an aerosol from an aqueous solution of the cyclic peptide of amino acid sequence SEQ ID NO:1 was used. For generating aerosol different nebulizer types were used. The nebulizers A and B were so called “Mesh-Type nebulizers”.

[2] = biological target: T1, amilorid-sensitive Sodium Ion Channel (ENaC) (Homo sapiens, UniProt P37088); experiment: Patch Clamp whole cell sodium current in deglycosylated (PNGase F) and untreated A549 cells; type: cell-based; conditions: peptide 240 nM, Eh = −100 mV
T1 construct: Macroscopic Sodium Ion Currents were derived from human lung epithelian cells A549; endogenous in cells; host or cells: A549 human lung epithelial cells
T1 sequence (P37088 1-669): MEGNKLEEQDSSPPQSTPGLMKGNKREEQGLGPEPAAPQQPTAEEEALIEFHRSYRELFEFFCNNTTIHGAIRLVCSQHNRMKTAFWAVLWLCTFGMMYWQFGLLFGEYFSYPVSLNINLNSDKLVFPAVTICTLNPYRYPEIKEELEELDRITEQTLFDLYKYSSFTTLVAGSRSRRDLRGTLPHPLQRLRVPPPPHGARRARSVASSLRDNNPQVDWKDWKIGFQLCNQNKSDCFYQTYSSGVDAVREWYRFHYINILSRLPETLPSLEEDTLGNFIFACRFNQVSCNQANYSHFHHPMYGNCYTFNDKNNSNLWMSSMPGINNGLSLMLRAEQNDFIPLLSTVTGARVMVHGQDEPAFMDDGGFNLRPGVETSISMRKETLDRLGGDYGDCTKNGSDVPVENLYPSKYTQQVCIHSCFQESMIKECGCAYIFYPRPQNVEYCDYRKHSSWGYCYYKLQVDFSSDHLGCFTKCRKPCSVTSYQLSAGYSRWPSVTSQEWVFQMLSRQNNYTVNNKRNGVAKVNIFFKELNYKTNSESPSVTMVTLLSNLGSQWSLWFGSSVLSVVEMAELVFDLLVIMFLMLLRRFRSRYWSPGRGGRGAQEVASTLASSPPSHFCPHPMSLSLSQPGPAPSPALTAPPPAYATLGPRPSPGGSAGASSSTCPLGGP
T1 sequence (P51168 1-640 partner): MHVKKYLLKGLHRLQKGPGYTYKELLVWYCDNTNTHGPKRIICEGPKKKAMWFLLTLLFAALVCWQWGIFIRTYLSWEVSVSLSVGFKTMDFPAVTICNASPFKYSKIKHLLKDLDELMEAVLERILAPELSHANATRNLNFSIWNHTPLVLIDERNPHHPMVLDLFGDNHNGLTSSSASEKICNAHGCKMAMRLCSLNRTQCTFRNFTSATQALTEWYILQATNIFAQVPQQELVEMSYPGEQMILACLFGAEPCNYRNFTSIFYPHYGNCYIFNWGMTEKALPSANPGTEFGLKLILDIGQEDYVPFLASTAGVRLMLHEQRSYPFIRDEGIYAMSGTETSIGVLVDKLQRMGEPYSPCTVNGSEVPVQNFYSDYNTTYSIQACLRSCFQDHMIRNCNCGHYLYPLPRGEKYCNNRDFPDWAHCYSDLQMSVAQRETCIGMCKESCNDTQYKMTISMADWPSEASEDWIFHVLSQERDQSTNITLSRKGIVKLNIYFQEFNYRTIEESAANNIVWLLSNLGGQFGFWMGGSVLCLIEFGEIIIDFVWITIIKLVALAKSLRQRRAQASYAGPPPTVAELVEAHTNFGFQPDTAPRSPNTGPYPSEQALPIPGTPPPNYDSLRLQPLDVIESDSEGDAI
T1 sequence (P51170 1-649 partner): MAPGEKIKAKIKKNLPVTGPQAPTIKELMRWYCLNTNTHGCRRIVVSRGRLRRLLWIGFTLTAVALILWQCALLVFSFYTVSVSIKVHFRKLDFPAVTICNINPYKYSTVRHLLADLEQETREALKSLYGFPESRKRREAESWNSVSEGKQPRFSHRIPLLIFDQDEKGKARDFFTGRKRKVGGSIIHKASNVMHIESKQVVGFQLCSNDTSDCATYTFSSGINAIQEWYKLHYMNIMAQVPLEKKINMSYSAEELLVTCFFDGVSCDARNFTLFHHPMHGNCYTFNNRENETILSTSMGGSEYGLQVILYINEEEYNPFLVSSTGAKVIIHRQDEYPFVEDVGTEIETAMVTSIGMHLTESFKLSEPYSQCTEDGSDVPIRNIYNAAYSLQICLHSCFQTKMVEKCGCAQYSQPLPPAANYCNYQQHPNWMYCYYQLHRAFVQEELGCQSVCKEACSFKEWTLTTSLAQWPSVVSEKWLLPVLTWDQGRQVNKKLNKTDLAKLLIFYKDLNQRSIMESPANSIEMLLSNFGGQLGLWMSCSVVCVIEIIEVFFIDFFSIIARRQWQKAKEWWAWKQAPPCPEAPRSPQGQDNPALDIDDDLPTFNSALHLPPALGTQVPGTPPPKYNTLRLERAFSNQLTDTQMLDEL
Experimental: […] After control recordings, 240 nM of the peptide of amino acid sequence SEQ ID NO:1 was added to the bath solution. […] Whole cell currents were recorded at Eh=−100 mV. The concentration of the peptides of amino acid sequence SEQ ID NO:1 to SEQ ID NO:7 in the bath solution was 240 nM.

Molecule | part of the aerosol available for inhalation (inhalation filter) [1] | whole cell sodium current ([2]; no pretreatment with PNGase F) | whole cell sodium current ([2]; pre-treatment with PNGase F) | whole cell sodium current ([2]; no pretreatment with PNGase F, listed as SEQ ID NO:7)
C[C@@H]1NC(=O)CNC(=O)[C@H](CCC(=O)O)NC(=O)[C@@H]2CCCN2C(=O)[C@H]([C@@H](C)O)NC(=O)[C@H](CCC(=O)O)NC(=O)[C@H](CCCNC(=N)N)NC(=O)[C@H](CCC(N)=O)NC(=O)CNC(=O)[C@@H](N)CSSC[C@@H](C(=O)O)NC(=O)[C@H](Cc2ccc(O)cc2)NC(=O)[C@H](Cc2c[nH]c3ccccc23)NC(=O)[C@@H]2CCCN2C(=O)[C@H](CCCCN)NC(=O)[C@H](C)NC(=O)[C@H](CCC(=O)O)NC1=O [SEQ ID NO: 1] | predominant part | 1073.3 ± 15.1 pA | 19.6 pA (n = 3) | 
Cyclo(CGQREAPAGAAAKPWYC) (disulfide 1-17) [SEQ ID NO: 7, reference compound] |  | No activity | No activity | no activity

— patent US10711041B2, “Lyophilisate containing a cyclic peptide of formula X1-[sequence]-X2” (priority 2013, dated 2020)
